According to US20220143003A1, “COMPOSITIONS AND METHODS TO TREAT NON-ALCOHOLIC FATTY LIVER DISEASES (NAFLD)” (Coherus Biosciences, Inc., priority 2018, published 2022):
Entries after “also recorded” stand apart in the source; their conditions may differ. One block for each molecule: values may come before it.

Assays:
Format in all cases: in vivo, male C57BL/6JRj mice
DIO-NASH mice [1] = experiment: Plasma alanine transaminase (ALT) at termination; conditions: for Plasma alanine transaminase (ALT) at termination: group mean
Protocol: (§1) For plasma biochemistry, tail blood was drawn directly through the capillary of a Microvette/Vacuette of the right dimension and anticoagulant and mixed by inversion 5 times. Blood was placed at 4° C. until centrifugation at 3000×g for 10 minutes at 4° C. The plasma supernatants were transferred to new tubes and immediately frozen on dry ice and stored at −80° C. until analysis.
(§2) Mouse insulin was measured in single determinations using the MSD platform (Meso Scale Diagnostics).
Plasma alanine transaminase (ALT) at termination (U/L). Values expressed as mean of n=11-14+SEM.

DIO-NASH mice [2] = experiment: Liver triglycerides (TG) at termination; conditions: group mean
Protocol: The liver post-biopsy for histological analyses was removed by dissection from the left lateral lobe, fixated in 4% formalin for 20-24 h, and subsequently embedded in paraffin. Liver biopsies for liver triglycerides and total cholesterol were dissected from the medial lobe, snap frozen in liquid nitrogen, and stored at −80° C., while liver biopsies for hydroxyproline were dissected from the caudal lobe (the entire lobe), snap frozen in liquid nitrogen and stored at −80° C. Finally, a liver sample for RNA isolation and gene expression analysis was dissected from the left lateral lobe, snap frozen in liquid nitrogen, and stored at −80° C. until processing.
For liver TG and TC quantification, samples were homogenized, and TG and TC extracted in 5% NP-40 by heating twice to 90° C. The samples were centrifuged, and the TG and TC content measured in the supernatant, using commercial kits (Roche Diagnostics) on the Cobas c501 autoanalyzer according to the manufacturer's instructions.
Relative (mg/g of liver) liver triglycerides (TG) at termination. Values expressed as mean of n=12-14+SEM.
Total (mg/liver) liver triglycerides (TG) at termination. Values expressed as mean of n=12-14+SEM.

DIO-NASH mice [3] = experiment: EchoMRI body composition (MRI body weight, fat, lean and free water mass); conditions: for Absolute fat tissue mass at week 11 / Absolute free water mass at week 11 / MRI body weight at week 11 / Relative fat tissue mass at week 11 / Relative lean tissue mass at week 11 / Relative free water mass (% of body weight): group mean, week 11
Protocol: The body composition of the mice was assessed by an EchoMRI 3-1 Body composition analyzer (EchoMRI, US). Non-anaesthetised mice was placed in a plastic tube inside the MRI scanner for approximately 80 seconds. The body composition is expressed as fat mass, fat free mass (lean mass) and water.

DIO-NASH mice [4] = experiment: NAFLD Activity Score (steatosis, lobular inflammation, ballooning), pre- to post-biopsy histopathological scoring; conditions: for NAFLD activity score (NAS), effect in words: 12 weeks of treatment, compared to NASH vehicle+vehicle, summary of data; for Delta change in NAFLD activity score from pre- to post biopsy: group mean
Protocol: Three weeks prior to study start, a pre-biopsy was performed to confirm NASH and for study inclusion of NASH-affected mice only. Briefly, mice were anesthetized with isoflurane (2-3%) in 100% oxygen. A small abdominal incision was made in the midline and the left lateral lobe of the liver exposed. A cone shaped wedge of liver tissue (approximately 50 mg) was excised from the distal portion of the lobe and fixated in 10% neutral buffered formalin (4% formaldehyde) for histopathological analyses. The cut surface of the liver was instantly electro-coagulated using bipolar coagulation (ERBE VIO 100 electrosurgical unit). The liver was returned to the abdominal cavity, the abdominal wall sutured, and the skin closed with staplers. For post-operative recovery, mice received carprofen (5 mg/ml-0.01 ml/10 g) administered subcutaneously on the day of operation and on post-operation day 1 and 2.
For Hematoxylin & Eosin (HE) staining, slides were incubated in Mayer's Hematoxylin, washed in tap water, stained in Eosin Y solution, […], mounted with Pertex and allowed to dry before scanning.
For scoring of NAFLD Activity Score (NAS) and fibrosis stage, HE and Sirius red stained liver sections, respectively, were scored by a histopathology specialist as outlined in Table 10 using the clinical criteria outlined by Kleiner et al. (2005). Total NAS score represents the sum of scores for steatosis, lobular inflammation, and ballooning degeneration scores, and ranges from 0-8.
For steatosis score, percentage refers to percentage of hepatocytes affected by steatosis as evaluated on low to medium power examination.
For lobular inflammation, inflammation is evaluated by counting the number of inflammatory foci per field using a 200× magnification (min. 5 fields per animal). A focus is defined as a cluster, not a row, of >3 inflammatory cells. Acidophil bodies are not included in this assessment, nor is portal inflammation.
For hepatocellular ballooning degeneration, degenerated hepatocytes with a cleared cytoplasm, enlargement, swelling, rounding and reticulated cytoplasm were identified.
Delta change in NAFLD activity score from pre-to post biopsy. Values expressed as mean of n=12-14+SEM.

DIO-NASH mice [5] = experiment: Plasma urea at termination; conditions: for Plasma urea at termination: group mean
Protocol: as §1, §2
Plasma urea at termination (mmol/L). Values expressed as mean of n=12-14+SEM.

DIO-NASH mice [6] = experiment: Plasma aspartate transaminase (AST) at termination; conditions: group mean
Protocol: as §1, §2
Plasma aspartate transaminase (AST) at termination (U/L). Values expressed as mean of n=11-14+SEM.

[7] = CHS-131 High dose (alone or combined)
[8] = DIO-NASH mice, compared to DIO mice administered vehicle only
[9] = DIO-NASH mice, CHS-131 High 30 mg/kg, empagliflozin 10 mg/kg, elafibranor 30 mg/kg PO, liraglutide 0.4 mg/kg SC, QD
[10] = DIO-NASH mice, CHS-131 Low 10 mg/kg PO QD
[11] = DIO-NASH mice, compared to vehicle only, non-significant

Hemodilution, assessed by urea, effect in words (DIO-NASH mice [5]; [8]): No difference | Plasma urea at termination (DIO-NASH mice [5]; [7]): 7.12 mmol/L | Plasma urea at termination (DIO-NASH mice [5]; CHS-131 Low dose): 7.4 mmol/L
Compound: O=S(=O)(Nc1cc(Cl)c(Oc2cnc3ccccc3c2)c(Cl)c1)c1ccc(Cl)cc1Cl [CHS-131]
Plasma ALT, effect in words (DIO-NASH mice [1]; DIO-NASH mice, 12 weeks of treatment, summary of data): reduced | Decrease of plasma alanine aminotransferase (ALT) (DIO-NASH mice [1]; DIO-NASH mice, compared to DIO mice administered vehicle only (placebo)): 30% | Plasma alanine transaminase (ALT) at termination (DIO-NASH mice [1]; [7]): 140 U/L | Plasma alanine transaminase (ALT) at termination (DIO-NASH mice [1]; CHS-131 Low dose): 163 U/L | Relative liver triglycerides (TG) at termination (DIO-NASH mice [2]; [7]): 92.9 mg/g of liver | Total liver triglycerides (TG) at termination (DIO-NASH mice [2]; [7]): 300 mg/liver | Relative liver triglycerides (TG) at termination (DIO-NASH mice [2]; CHS-131 Low dose): 96.7 mg/g of liver | Total liver triglycerides (TG) at termination (DIO-NASH mice [2]; CHS-131 Low dose): 306 mg/liver | Fat tissue mass (fat mass), effect in words (DIO-NASH mice [3]; [8]): reduced significantly | Free water mass, effect in words (DIO-NASH mice [3]; [8]): remained stable | Relative fat tissue mass, effect in words (DIO-NASH mice [3]; [8]): reduced | Reduction of % fat mass as % of baseline body weight (DIO-NASH mice [3]; DIO-NASH mice, compared to vehicle alone, CHS-131 dose not stated): 20% | Absolute fat tissue mass at week 11 (DIO-NASH mice [3]; [9]): 6.9 g | Absolute free water mass at week 11 (DIO-NASH mice [3]; [9]): 0.0946 g | MRI body weight at week 11 (DIO-NASH mice [3]; [9]): 38.2 g | Relative fat tissue mass at week 11 (DIO-NASH mice [3]; [9]): 17.8 % of body weight | Relative lean tissue mass at week 11 (DIO-NASH mice [3]; [9]): 48.1 % of body weight | Absolute fat tissue mass at week 11 (DIO-NASH mice [3]; [10]): 7.07 g | Absolute free water mass at week 11 (DIO-NASH mice [3]; [10]): 0.165 g | MRI body weight at week 11 (DIO-NASH mice [3]; [10]): 38.3 g | Relative fat tissue mass at week 11 (DIO-NASH mice [3]; [10]): 18.4 % of body weight | Relative lean tissue mass at week 11 (DIO-NASH mice [3]; [10]): 48.5 % of body weight | Relative free water mass (% of body weight) (DIO-NASH mice [3]; [7]): 0.249 % of body weight | Relative free water mass (% of body weight) (DIO-NASH mice [3]; CHS-131 Low dose): 0.429 % of body weight | NAFLD activity score (NAS), effect in words (DIO-NASH mice [4]; DIO-NASH mice): reduced NAS; also recorded: significant improvement | Improvement of average NAFLD activity score (NAS) post-baseline (DIO-NASH mice [4]; DIO-NASH mice, CHS-131 monotherapy, significant, on average): more than 1 unit | Improvement of ballooning (DIO-NASH mice [4]; [11]): ~10% | Improvement of steatosis (DIO-NASH mice [4]; [11]): approximately 30% | Improvement of lobular inflammation (DIO-NASH mice [4]; DIO-NASH mice, compared to vehicle only, non-significant (p=0.07)): 50% | NAFLD score: mice with improvement (DIO-NASH mice [4]; DIO-NASH mice, post- vs pre-study biopsy, significant): 7/13 | Delta change in NAFLD activity score from pre- to post biopsy (DIO-NASH mice [4]; [7]): −0.77 | Delta change in NAFLD activity score from pre- to post biopsy (DIO-NASH mice [4]; CHS-131 Low dose): −0.23 | Plasma aspartate transaminase (AST) at termination (DIO-NASH mice [6]; [7]): 166 U/L | Plasma aspartate transaminase (AST) at termination (DIO-NASH mice [6]; CHS-131 Low dose): 189 U/L

Plasma urea at termination (DIO-NASH mice [5]; [7]): 6.77 mmol/L
Compound: OC[C@H]1O[C@@H](c2ccc(Cl)c(Cc3ccc(O[C@H]4CCOC4)cc3)c2)[C@H](O)[C@@H](O)[C@@H]1O [Empagliflozin, reference compound]
Plasma alanine transaminase (ALT) at termination (DIO-NASH mice [1]; [7]): 216 U/L | Relative liver triglycerides (TG) at termination (DIO-NASH mice [2]; [7]): 108 mg/g of liver | Total liver triglycerides (TG) at termination (DIO-NASH mice [2]; [7]): 368 mg/liver | Absolute fat tissue mass at week 11 (DIO-NASH mice [3]; [9]): 7.81 g | Absolute free water mass at week 11 (DIO-NASH mice [3]; [9]): 0.182 g | MRI body weight at week 11 (DIO-NASH mice [3]; [9]): 40.1 g | Relative fat tissue mass at week 11 (DIO-NASH mice [3]; [9]): 19.4 % of body weight | Relative lean tissue mass at week 11 (DIO-NASH mice [3]; [9]): 47.1 % of body weight | Relative free water mass (% of body weight) (DIO-NASH mice [3]; [7]): 0.458 % of body weight | NAFLD activity score (NAS), effect in words (DIO-NASH mice [4]; DIO-NASH mice): positive trend for improvement | Delta change in NAFLD activity score from pre- to post biopsy (DIO-NASH mice [4]; [7]): −0.31 | Plasma aspartate transaminase (AST) at termination (DIO-NASH mice [6]; [7]): 230 U/L

Plasma urea at termination (DIO-NASH mice [5]; [7]): 8.01 mmol/L
Compound: CSc1ccc(C(=O)/C=C/c2cc(C)c(OC(C)(C)C(=O)O)c(C)c2)cc1 [Elafibranor, reference compound]
Plasma alanine transaminase (ALT) at termination (DIO-NASH mice [1]; [7]): 144 U/L | Relative liver triglycerides (TG) at termination (DIO-NASH mice [2]; [7]): 45.2 mg/g of liver | Total liver triglycerides (TG) at termination (DIO-NASH mice [2]; [7]): 196 mg/liver | Absolute fat tissue mass at week 11 (DIO-NASH mice [3]; [9]): 3.73 g | Absolute free water mass at week 11 (DIO-NASH mice [3]; [9]): 0.0923 g | MRI body weight at week 11 (DIO-NASH mice [3]; [9]): 32.5 g | Relative fat tissue mass at week 11 (DIO-NASH mice [3]; [9]): 11.3 % of body weight | Relative lean tissue mass at week 11 (DIO-NASH mice [3]; [9]): 52.6 % of body weight | Relative free water mass (% of body weight) (DIO-NASH mice [3]; [7]): 0.292 % of body weight | Delta change in NAFLD activity score from pre- to post biopsy (DIO-NASH mice [4]; [7]): −2.00 | Plasma aspartate transaminase (AST) at termination (DIO-NASH mice [6]; [7]): 205 U/L
